Laboratory results as given in US20060241067A1, “Methods For inhibiting angiogenesis, cell migration, cell adhesion, and cell survival” (priority 2002, published 2006).
Like-named read-outs stand apart in the source and are kept apart here. Where a SMILES comes first, the peptide text is derived from it. Where no end group is shown, it is not given here. The star is where a group is joined. Cbz = O=C(OCc1ccccc1)*; CH2F = FC*

What was measured:
[1] = test system: chick chorioallantoic membrane (CAM); assay: Chick chorioallantoic membrane (CAM) angiogenesis assay; format: in vivo, chicken; conditions: for angiogenesis (blood vessel branch points, vessel density): 1 μM peptide; for effect on inhibition of angiogenesis by anti-αvβ3: 500 μM caspase inhibitors; for effect on inhibition of angiogenesis by anti-α5β1: 500 μM caspase inhibitors or 4 μg plasmid
HUVECS [2] = assay: Annexin V-FITC staining of HUVECs (apoptosis); format: cell-based, human
Description: Plates were also coated with […] goat anti-mouse IgG (Southern Biotechnology Associates, Inc., Birmingham, Ala.) at 37° C. for 2 h, rinsed, blocked with denatured BSA, and then incubated with […] anti-a5b1 or control IgG (anti-MHC) at 4° C. for 16 hrs. HUVECs were incubated on plates in the presence or absence of 10 mg/ml anti-α5β1, -αvβ3, -α2β1, or -MHC for 0-24 hrs. In some experiments, HUVECs were incubated with antibodies and […] caspase-3, -8 or -9 inhibitors or vehicle control (0.5% DMSO). Cells were then incubated with Annexin V-FITC for 15 min at room temperature in the dark. Washed cells were fixed in 1% paraformaldehyde, then incubated in DAPI. The percentage of Annexin positive cells in 5 microscopic fields was determined at 200× magnification by fluorescence microscopy.
(§1) HUVECs were plated for 24 h on ECM protein-coated plates in the presence of anti-αvβ3 or anti-α5β1, 1 μM HA1004 (a PKA inhibitor), and anti-αvβ3 or anti-α5β1 with 1 μM HA1004. Cells were stained with FITC-Annexin V or immunoblotted with anti-cleaved caspase 3 antibodies as described above. 5×10^6 HUVECs were electroporated in 300 μl of EGM with 30 μg of DNA (20 μg dnPKA or PKAcat plasmids, 2 μg N1-GFP and 8 μg pBluescript) at 300 V, 450 μF as previously described (Dormond et al. (2001) Nature Med. 7,1041-7). Expression of transgenes was determined by Western blotting of cell lysates with anti-V5 and anti-GFP antibodies. Transfection efficiency was quantified by determining the percent of cells that were co-transfected with GFP-expression vectors. Eighty-percent transfection efficiency was generally achieved using this electroporation method.

[3] = test system: chick chorioallantoic membrane (CAM); assay: Apoptosis markers in CAM blood vessels in vivo (Annexin V, cleaved caspases, TUNEL, DNA gels); parameters: species or system chicken; conditions: for caspase activity in vivo (cleaved caspase immunoblot): CAMs treated with anti-α5β1 and caspase inhibitor; for effect on endothelial cell DNA fragmentation induced by α5β1 inhibition in vivo: TUNEL staining of CAM cryosections
Description: CAM assays were performed as described (Kim et al. (2000) Am. J. Path. 156:1345-1362). Saline or bFGF stimulated CAMs were treated for 24 h with 20 μg anti-α5β1, anti-αvβ3 or control antibodies and then injected intravenously with 50 μl Annexin V-FITC. CAMs were harvested after 2 h, then analyzed by confocal microscopy. Alternatively, CAMs treated as above were excised, minced on ice, and treated with 0.1% dispase/0.1% collagenase for 1 h at 37° C. Single cell suspensions were incubated with FITC-Annexin V and analyzed as described above. bFGF stimulated CAMs were also treated with anti-α5β1 or anti-αvβ3 in the presence or absence of 500 μM caspase-3, -8 or -9 inhibitors. bFGF stimulated CAMs were also transfected with 4 μg N1-GFP, dnPKA or PKAcat expression plasmids. Freshly excised CAMs were homogenized in ice cold RIPA buffer containing protease inhibitors and immunoblotted to detect intact and cleaved caspase 3 or 8. For all treatment groups, n=10. CAMs were fixed with 3.7% paraformaldehyde prior to excision. The average number of blood vessel branch points per treatment group+/−SEM is presented. Some excised CAMs were cryopreserved, cut into 5 μm sections, immunostained with anti-cleaved caspase 3, anti-cleaved caspase 8 and anti-VFW antibodies (to detect blood vessels). CAMs were also stained by the TUNEL method to detect fragmented DNA.

[4] = test system: Human umbilical vein endothelial cells (HUVEC); assay: Endothelial cell migration assay (transwell) on ECM substrates; format: cell-based; conditions: for endothelial cell migration on vitronectin: 1 μM peptide
Description: Human umbilical vein endothelial cells (HUVEC) were grown in Endothelial Growth Medium (containing 2% fetal bovine serum, bFGF and VEGF) (Clonetics, San Diego, Calif.). To render HUVECs quiescent for Rac and/or Rho assays, monolayers of endothelial cells were incubated for 18 hrs in Endothelial Basal Medium supplemented with 0.1% serum (Clonetics). Cell migration and adhesion assays on ECM substrates were performed as previously described in Kim et al. (S. Kim et al., Amer. J. Biol. Chem., 275:33920-33928 (2000); and S. Kim et al., Amer. J. Path., 156:1345-1362 (2000)).
Migration assays were performed essentially as described (Kim, et. al., 2000). […] HUVECS (25,000) were added to the upper chamber of inserts in migration buffer (Hepes buffered M199 medium containing 1% BSA, 2 mM MgCl2, 2 mM CaCl2 and 0.2 mM MnCl2) containing 25 μg/ml of various antibodies. In some experiments, 250 μM dibutyryl cAMP was placed in the upper and lower chambers of the transwell. Cells were allowed to migrate from the upper to the lower chamber for four hours at 37° C. The number of cells which had migrated were counted in three representative high power (200×) fields per insert. The data are presented as number of cells migrating+/−standard error of the mean. Migration assays were similarly performed on transfected cells. In this case, migrated transfected cells were identified by fluorescent microscopy and counted.

HUVECS [5] = assay: Apoptosis assays in HUVECs (PARP and caspase immunoblots, caspase activity, DNA fragmentation); format: cell-based, human
Description: In some embodiments, HUVECs were incubated on ECM or antibody coated plates for 0-24 hrs. DNA fragmentation was detected by agarose gel electrophoresis as described in M. Herrmann et al. (See, M. Herrmann et al., Nucleic Acids Res., 22:5506-5507 (1994)). Alternatively, HUVECS on plates were lyzed with RIPA buffer (See, S. Kim et al., J. Biol. Chem., 275:33920-33928 (2000)) on ice. Lysates were electrophoresed on 8% SDS-PAGE gels and immunoblotted with anti-PARP, -caspase-3, -caspase-9, -cleaved caspase 3, or -cleaved caspase-9 antibodies. Immunoreactive bands were identified by chemiluminescence and quantified by densitometry. Caspase 3 and 8 activities were determined in cell lysates according to manufacturer's instructions (Calbiochem, La Jolla, Calif.).
as §1

protein kinase A = assay: PKA activity assay in HUVECs; format: cell-based, human
Description: PKA activity was measured in HUVECs essentially as previously described in Kim et al (S. Kim et al., Amer. J. Biol. Chem., 275:33920-33928 (02000)). HUVECs were placed in suspension, allowed to attach to ECM protein coated plates in the absence or presence of anti-integrin antibodies or were treated with 10 μM PTHrP and/or 250 μM cAMP. PKA activity was measured at various times from 0-4 hrs (e.g., 2-30 min).
Plates were washed and blocked in 3% bovine serum albumin for 1 hour at 37° C. HUVECS were trypsinized and resuspended in adhesion buffer (Hanks balanced salt solution supplemented with 10 mM HEPES, pH 7.4, 2 mM MgCl2, 2 mM CaCl2, 0.2 mM MnCl2, 1% BSA. Cells were plated on matrix protein coated plates in culture medium or in the presence of 25 μg/ml anti-α5β1, anti-αvβ3 or anti-α2β1 antibodies for various times from 0 minutes to 4 hours. Plates were washed with phosphate buffered saline and cells were extracted with cold extraction buffer (50 mM Tris, pH 7.5, 5 mM EDTA, 25 μg/ml aprotinin and 25 μg/ml leupeptin). Protein Kinase A activity was assessed using a kit from Gibco BRL. Briefly, equal volumes of lysate and reaction mixture containing final concentrations of 50 mM Tris, pH 7.5, 10 mM MgCl2, 0.25 mg/ml BSA, 50 μM Kemptide (a protein kinase A substrate), 3000 Ci/mmol (γ^32 P) ATP and 100 μM ATP were combined for 5 minutes at 30° C. Total PKA in each sample was measured by performing the assay in the presence of 10 μM cAMP. Background PKA activity in test and total PKA samples were determined by performing the assay in the presence of a PKA inhibitor peptide, PKI (6-22) amide. Twenty μl samples of reaction mixtures were spotted onto phosphocellulose discs and washed repeatedly with 1% (v/v) phosphoric acid in water. Incorporated radioactivity was determined by scintillation counting. Activated PKA was calculated from the ratio of pmol/min test sample PKA to pmol/min total PKA. PKA activity in triplicate samples was measured and experiments were repeated at least three times.
In another embodiment, PKA assays were performed with a kit from Calbiochem (San Diego, Calif.). Cell lysates were incubated in ELISA plates coated with a PKA peptide substrate, then incubated with anti-phosphoserine antibodies. Bound antibody was detected after incubation with anti-rabbit IgG-horse radish peroxidase. Statistical analyses were performed using Student's t-test.

[6] = test system: DU145 prostate carcinoma tumors; assay: DU145 tumor assay in nude mice; format: in vivo; conditions: daily intravenous injections, ten days

calcitonin: a calcium regulating peptide hormone (CGNLSTCMLGTYTQDFNKFHTFPQTAIGVGAP; ends and bridges not checked; cysteine pairing not given here; UniProt P01258 85-116, looked up)
angiogenesis (blood vessel branch points, vessel density) ([1]; bFGF stimulated CAMs): Only PTHrP inhibited angiogenesis
pre-existing vessels (number, size, composition) ([1]; saline-stimulated CAMs): no effect on the number, size or composition of pre-existing vessels

COC(=O)CC[C@H](NC(=O)[C@H](CC(=O)OC)NC(=O)OCc1ccccc1)C(=O)N[C@H](C(=O)N[C@@H](CC(=O)OC)C(=O)CF)C(C)C [caspase 3 inhibitors, z-DEVD-fmk]
effect on cell death induced by anti-α5β1 antibodies (HUVECS [2]; 50 μM caspase inhibitor, cells on fibronectin or vitronectin, 24 h): blocked
caspase activity in vivo (cleaved caspase immunoblot) [3]: partially blocked caspase 3 activity in vivo
effect on endothelial cell DNA fragmentation induced by α5β1 inhibition in vivo [3]: prevented in vivo endothelial cell DNA fragmentation
effect on inhibition of angiogenesis by anti-αvβ3 ([1]; bFGF stimulated CAMs): partially reversed
effect on inhibition of angiogenesis by anti-α5β1 ([1]; bFGF stimulated CAMs): partially reversed

O=S(=O)(NCCNCC=Cc1ccc(Br)cc1)c1cccc2cnccc12 [H89, N-(2-(p-bromocinnamylamino)ethyl)-5-isoquinoline sulfonamide]
effect on cAMP-, PKA catalytic subunit- or PTHrP-mediated inhibition of cell migration ([4]; HUVEC on vitronectin): blocked the anti-migratory properties of PTHrP
effect on inhibition of angiogenesis by PTHrP ([1]; bFGF stimulated CAMs, 8B12, 480 nM H89 or dnPKA plasmid): blocks the suppression of angiogenesis induced by PTHrP 1-34

fibronectin: ECM protein used as culture substrate
annexin V binding of HUVECs by culture substrate (HUVECS [2]; coated plates, 0-8 h): bind little annexin V
DNA fragmentation by culture substrate (HUVECS [5]; HUVECs on coated plates): protects HUVECs from DNA fragmentation
PARP cleavage by culture substrate (HUVECS [5]; HUVECs on coated plates): showed little PARP cleavage

pertussis toxin
PKA activation (protein kinase A; inventors' data, no details given): inhibits PKA activation

cholera toxin
PKA activation (protein kinase A): activates PKA

CC[C@H](C)[C@H](NC(=O)OCc1ccccc1)C(=O)N[C@@H](CCC(=O)OC)C(=O)N[C@H](C(=O)N[C@@H](CC(=O)OC)C(=O)CF)[C@@H](C)O [caspase 8 inhibitors, z-IETD-fmk] (Cbz-IE(OMe)TD(OMe)-CH2F)
caspase activity in vivo (cleaved caspase immunoblot) [3]: completely blocked its activity in vivo
effect on endothelial cell DNA fragmentation induced by α5β1 inhibition in vivo [3]: prevented in vivo endothelial cell DNA fragmentation
effect on inhibition of angiogenesis by anti-αvβ3 ([1]; bFGF stimulated CAMs): partially reversed
effect on inhibition of angiogenesis by anti-α5β1 ([1]; bFGF stimulated CAMs): fully reversed

PTHrP 15-34: PTHrP fragment, amino acids 15-34 (IQDLRRRFFLHHLIAEIHTA)
endothelial cell migration on vitronectin [4]: unable to inhibit cell migration

H L Q A H S V E D L (HLQAHSVEDL) [scrambled 1-10, scrambled version of PTHrP 1-10, control peptide]
tumor growth ([6]; final serum concentration 1 μM): but not a scrambled control peptide, suppressed tumor growth and tumor angiogenesis
tumor angiogenesis (CD31 vessels) [6]: but not a scrambled control peptide, suppressed tumor growth and tumor angiogenesis
endothelial cell migration on vitronectin [4]: unable to inhibit cell migration

NC(N)=NCCNS(=O)(=O)c1cccc2cnccc12 [HA1004]
effect on apoptosis induced by integrin antagonists (HUVECS [2]; PKA inhibition (1 μM HA1004 or dnPKA), 24 h): substantially suppressed the apoptosis
effect on caspase 3 cleavage induced by anti-α5β1 (HUVECS [5]; cells attached to vitronectin): blocked caspase 3 cleavage

PTHrP 1-86: PTHrP fragment containing the N-terminus, amino acids 1-86
endothelial cell migration on vitronectin [4]: inhibited migration
angiogenesis (blood vessel branch points, vessel density) ([1]; bFGF stimulated CAMs): potently inhibited angiogenesis

PTHrP 107-138: PTHrP fragment lacking the N-terminus (TRSAWLDSGVTGSGLEGDHLSDTSTTSLELDS; UniProt P12272 143-174, looked up, fragment)
endothelial cell migration on vitronectin [4]: not able to inhibit cell migration
